Test [1] deals with T1, non-human primate D1 receptor (Macaca fascicularis, UniProt G7P6Y1).
T1 construct: native receptor in striatal membrane homogenate
Description: radioligand competition binding. Format: biochemical. The conditions noted are these: 1.0 nM [3H]-SCH23390, striatal membranes, 4 mM MgSO4, 0.5 mM EDTA, pH 7.4, 37 °C; Cheng-Prusoff.

The target of test [2] is T2, human D1 receptor (Homo sapiens, UniProt P21728).
T2 construct: gene DRD1; human D1
Description: cAMP functional assay (method of Gray et al., […]). Particulars: partial agonist. Format: cell-based.

Test [3] concerns the target T2, human D1 receptor. Description: binding assay (method of Gray et al., […]). Format: cell-based.

This note sets out measurements from article PMC8662559, “The Effects of a Novel Non-catechol Dopamine Partial Agonist on Working Memory in the Aged Rhesus Monkey” (Frontiers in Aging Neuroscience, 2021).

T2 sequence (P21728 whole entry): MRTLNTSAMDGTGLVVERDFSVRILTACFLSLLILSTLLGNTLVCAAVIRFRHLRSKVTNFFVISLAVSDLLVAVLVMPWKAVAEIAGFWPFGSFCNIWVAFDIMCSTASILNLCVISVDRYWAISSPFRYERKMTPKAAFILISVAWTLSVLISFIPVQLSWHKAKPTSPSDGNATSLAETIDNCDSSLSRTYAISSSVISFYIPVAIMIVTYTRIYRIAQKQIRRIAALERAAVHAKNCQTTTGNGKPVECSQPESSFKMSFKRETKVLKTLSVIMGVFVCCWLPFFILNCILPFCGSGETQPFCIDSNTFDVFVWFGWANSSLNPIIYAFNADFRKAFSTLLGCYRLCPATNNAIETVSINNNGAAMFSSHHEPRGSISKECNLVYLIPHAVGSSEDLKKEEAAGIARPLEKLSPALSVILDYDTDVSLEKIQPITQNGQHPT
T1 sequence (G7P6Y1 1-446): as the sequence (P21728 whole entry) above, with N311I counted along it

For the substance PF-6294, the values for the Ki in test [1] and in test [3] were 14 nM and 17 nM, respectively. In test [2], this substance came in with an EC50 of 36 nM.
